For experiment [1], the system named is Aspergillus niger. The experiment can be described thus: Antifungal activity against Aspergillus niger assessed as diameter of the zone of inhibition at 20 ug/disk by disk diffusion method. Particulars: for zone of inhibition at 20 µg/disc: read-out: DIZ. It counts as functional. (In general: In agar diffusion tests the substance spreads into inoculated agar from a disc or well.)

Experiment [2] concerns Alternaria brassicae. The experiment can be described thus: Antifungal activity against Alternaria brassicae assessed as diameter of the zone of inhibition at 20 ug/disk by disk diffusion method. Format: functional. Particulars: for zone of inhibition at 20 µg/disc: read-out: DIZ.
Experiment [3] has as its system HeLa. The experiment can be described thus: Cytotoxicity against human HeLa cells. It counts as functional, cell-based.
Experiment [4] relates to SW1990. The experiment can be described thus: Cytotoxicity against human SW1990 cells. Format: functional, cell-based.
Experiment [5] relates to NCI-H460. The experiment can be described thus: Cytotoxicity against human NCI-H460 cells. Format: functional, cell-based.

≈ marks a conversion by molar mass, not a printed value. Calls of active or inactive are those of the source. No cut-off for these calls is given here.

`CC(=O)O[C@H]1C[C@H]2[C@H]3[C@H]([C@@H](O)C[C@]2(C)[C@H]1[C@H](C)/C=C/[C@H](C)C(C)C)[C@@]1(C)CC[C@H](O)CC1=C[C@@H]3O`: the outcome in experiment [1] and in experiment [2] was inactive.
Turning to `CC(=O)O[C@H]1C[C@H]2[C@@H]3[C@@H](O)[C@@H](O)[C@H]4C[C@@H](O)CC[C@]4(C)[C@H]3[C@@H](O)C[C@]2(C)[C@H]1[C@H](C)/C=C/[C@H](C)C(C)C`, the zone of inhibition at 20 µg/disc in experiment [1] was determined as 18 mm; in experiment [2], 8 mm. Moreover, the IC50 – broadly, the concentration that gives 50% inhibition – in experiment [3] stood at 15 mg/L (≈ 29.6 µM); in experiment [4], 31 mg/L (≈ 61.2 µM); in experiment [5], 40 mg/L (≈ 78.9 µM).
For the compound `CC(=O)O[C@H]1C[C@H]2[C@H]3[C@H]([C@@H](O)C[C@]2(C)[C@H]1[C@H](C)/C=C/[C@H](C)C(C)C)[C@@]1(C)CC[C@H](O)C[C@@H]1C(=O)[C@@H]3O` [ANICEQUOL], the outcome in experiment [1] was Active. In experiment [2], the zone of inhibition at 20 µg/disc was 6 mm.
For the compound `C[C@@H]1[C@H](O)[C@@H](C)/C=C/C=C/C=C/C=C/C=C/C=C/C=C/[C@H](O[C@@H]2O[C@H](C)[C@@H](O)[C@H](N)[C@@H]2O)C[C@@H]2O[C@](O)(C[C@@H](O)C[C@@H](O)[C@H](O)CC[C@@H](O)C[C@@H](O)CC(=O)O[C@H]1C)C[C@H](O)[C@H]2C(=O)O` [AMPHOTERICIN B], the figures for the zone of inhibition at 20 µg/disc in experiment [1] and in experiment [2] were 24 mm and 16 mm, respectively.

The values above are taken from ChEMBL document CHEMBL1770064, “Penicisteroids A and B, antifungal and cytotoxic polyoxygenated steroids from the marine alga-derived endophytic fungus Penicillium chrysogenum QEN-24S” (Bioorg Med Chem Lett, 2011).
